# According to patent US9320739B2 (AMBIT BIOSCIENCES CORPORATION, priority 2008, dated 2016):
# System: panel of 290 distinct kinases (321 in the larger panel), excluding mutant variants
# Conditions: asterisk: panel of 321 distinct kinases; fraction of kinases inhibited 65% or greater
# Protocol: Competition binding assays used herein were developed, validated and performed as described in Fabian et al., Nature Biotechnology 2005, 23, 329-336. […] The liganded beads were blocked with excess biotin and washed with blocking buffer (SeaBlock (Pierce), 1% BSA, 0.05% Tween 20, 1 mM DTT) to remove unbound ligand and to reduce non-specific binding. […] Test compounds were prepared as 100× stocks in DMSO and rapidly diluted into the aqueous environment. DMSO was added to control assays lacking a test compound. Primary screen interactions were performed in polypropylene 384-well plates in a final volume of 34 μL, while Kd determinations were performed in polystyrene 96-well plates in a final volume of 135 pt. […] The kinase concentration in the eluates was measured by quantitative PCR. Each kinase was tested individually against each compound. Kds were determined using eleven serial threefold dilutions. A selectivity score, which is a quantitative measure of selectivity of a compound against a panel of enzymes, may be calculated for a compound by dividing the number of enzymes for which a compound meets a set criteria, (for example, a binding constant of 100 nM or less), by the total number of enzymes tested. […] (Note, for those compounds tested in a larger kinase panel, as indicated by an asterisk (*) next to the S35 score, the divisor is 321 (i.e. the larger panel contains 321 distinct kinases, excluding mutant variants.)).
row,Compound,S35
1,"COc1cc2ncnc(Sc3cccc(NC(=O)Nc4cc(C(F)(F)F)n(C)n4)c3)c2cc1OC [Ex 194, 1-[3-(6,7-dimethoxyquinazolin-4-ylthio)phenyl]-3-[1-methyl-5-(trifluoromethyl)-1H-pyrazol-3-yl]urea]",C* (0.20 < C ≦ 0.40)

# Same assay, conditions: no asterisk: panel of 290 distinct kinases
row,Compound,S35
1,"COc1ccc(-n2nc(C(C)C)cc2NC(=O)Nc2cccc(Sc3ncnc4cc(OC)c(OC)cc34)c2)cc1 [Ex 349, 1-(3-(6,7-dimethoxyquinazolin-4-ylthio)phenyl)-3-(3-isopropyl-1-(4-methoxyphenyl)-1H-pyrazol-5-yl)urea]",C (0.20 < C ≦ 0.40)
2,"COc1ccc(-n2nc(C(C)C)cc2NC(=O)Nc2cccc(Oc3ncnc4cc(OC)c(OC)cc34)c2)cc1 [Ex 348, 1-(3-(6,7-dimethoxyquinazolin-4-yloxy)phenyl)-3-(3-isopropyl-1-(4-methoxyphenyl)-1H-pyrazol-5-yl)urea]",D (D > 0.40)
3,"COc1cc2ncnc(Oc3cccc(NC(=O)Nc4cc(C(F)(F)F)nn4-c4cccc(C)c4)c3)c2cc1OC [Ex 338, 1-(3-(6,7-dimethoxyquinazolin-4-yloxy)phenyl)-3-(1-m-tolyl-3-(trifluoromethyl)-1H-pyrazol-5-yl)urea]",C (0.20 < C ≦ 0.40)
4,"COc1cc2ncnc(Sc3cccc(NC(=O)Nc4cc(C(C)(C)C)nn4-c4ccncc4)c3)c2cc1OC [Ex 337, 1-(3-tert-butyl-1-(pyridin-4-yl)-1H-pyrazol-5-yl)-3-(3-(6,7-dimethoxyquinazolin-4-ylthio)phenyl)urea]",D (D > 0.40)
5,"COc1cc2ncnc(Oc3cccc(NC(=O)Nc4cc(C(C)(C)C)nn4CC(C)C)c3)c2cc1OC [Ex 332, 1-(3-tert-butyl-1-isobutyl-1H-pyrazol-5-yl)-3-(3-(6,7-dimethoxyquinazolin-4-yloxy)phenyl)urea]",C (0.20 < C ≦ 0.40)
6,"COc1cc2ncnc(Oc3cccc(NC(=O)Nc4cc(C(C)(F)F)nn4-c4cncc(F)c4)c3)c2cc1OC [Ex 316, 1-(3-(1,1-difluoroethyl)-1-(5-fluoropyridin-3-yl)-1H-pyrazol-5-yl)-3-(3-(6,7-dimethoxyquinazolin-4-yloxy)phenyl)urea]",C (0.20 < C ≦ 0.40)
7,"COc1cc2ncnc(Sc3cccc(NC(=O)Nc4cc(C5CC5)nn4-c4ccccc4)c3)c2cc1OC [Ex 354, 1-(3-cyclopropyl-1-phenyl-1H-pyrazol-5-yl)-3-(3-(6,7-dimethoxyquinazolin-4-ylthio)phenyl)urea]",C (0.20 < C ≦ 0.40)
8,"COc1cc2ncnc(Sc3cccc(NC(=O)Nc4cc(C(C)(C)C)nn4-c4cncc(F)c4)c3)c2cc1OC [Ex 327, 1-(3-tert-butyl-1-(5-fluoropyridin-3-yl)-1H-pyrazol-5-yl)-3-(3-(6,7-dimethoxyquinazolin-4-ylthio)phenyl)urea]",D (D > 0.40)
9,"COc1cc2ncnc(Sc3cccc(NC(=O)Nc4cc(C(C)(C)C(F)(F)F)nn4-c4ccccc4)c3)c2cc1OC [Ex 307, 1-(3-(6,7-dimethoxyquinazolin-4-ylthio)phenyl)-3-(1-phenyl-3-(1,1,1-trifluoro-2-methylpropan-2-yl)-1H-pyrazol-5-yl)urea]",D (D > 0.40)
10,"COc1cc2ncnc(Oc3cccc(NC(=O)Nc4cc(C(C)(C)C)nn4-c4ccncc4)c3)c2cc1OC [Ex 336, 1-(3-tert-butyl-1-(pyridin-4-yl)-1H-pyrazol-5-yl)-3-(3-(6,7-dimethoxyquinazolin-4-yloxy)phenyl)urea]",D (D > 0.40)
11,"COc1ccc(-n2nc(C(C)(F)F)cc2NC(=O)Nc2cccc(Oc3ncnc4cc(OC)c(OC)cc34)c2)cc1 [Ex 315, 1-(3-(1,1-difluoroethyl)-1-(4-methoxyphenyl)-1H-pyrazol-5-yl)-3-(3-(6,7-dimethoxyquinazolin-4-yloxy)phenyl)urea]",D (D > 0.40)
12,"COc1cc2ncnc(Oc3cccc(NC(=O)Nc4cc(C(C)(C)C)nn4-c4ccccc4Cl)c3)c2cc1OC [Ex 340, 1-(3-tert-butyl-1-(2-chlorophenyl)-1H-pyrazol-5-yl)-3-(3-(6,7-dimethoxyquinazolin-4-yloxy)phenyl)urea]",D (D > 0.40)
13,"COc1cc2ncnc(Oc3cccc(NC(=O)Nc4cc(C(C)(C)C)nn4-c4cc[nH]c(=O)c4)c3)c2cc1OC [Ex 313, 1-(3-tert-butyl-1-(2-oxo-1,2-dihydropyridin-4-yl)-1H-pyrazol-5-yl)-3-(3-(6,7-dimethoxyquinazolin-4-yloxy)phenyl)urea]",D (D > 0.40)
14,"COc1cc2ncnc(Oc3cccc(NC(=O)Nc4cc(C(C)(C)C)nn4-c4ccnc(C)c4)c3)c2cc1OC [Ex 320, 1-(3-tert-butyl-1-(2-methylpyridin-4-yl)-1H-pyrazol-5-yl)-3-(3-(6,7-dimethoxyquinazolin-4-yloxy)phenyl)urea]",D (D > 0.40)
15,"COc1cc2ncnc(Sc3cccc(NC(=O)Nc4cc(C(C)(C)C)nn4-c4ccc(C#N)cc4)c3)c2cc1OC [Ex 329, 1-(3-tert-butyl-1-(4-cyanophenyl)-1H-pyrazol-5-yl)-3-(3-(6,7-dimethoxyquinazolin-4-ylthio)phenyl)urea]",D (D > 0.40)
16,"COc1cc2ncnc(Oc3cccc(NC(=O)Nc4cc(C(C)(C)CO)no4)c3)c2cc1OC [Ex 255, 1-(3-(6,7-dimethoxyquinazolin-4-yloxy)phenyl)-3-(3-(1-hydroxy-2-methylpropan-2-yl)isoxazol-5-yl)urea]",C (0.20 < C ≦ 0.40)
17,"COc1cc2ncnc(Sc3cccc(NC(=O)Nc4cc(C5(C(F)(F)F)CC5)nn4-c4ccc(C)cc4)c3)c2cc1OC [Ex 347, 1-(3-(6,7-dimethoxyquinazolin-4-ylthio)phenyl)-3-(1-p-tolyl-3-(1-(trifluoromethyl)cyclopropyl)-1H-pyrazol-5-yl)urea]",D (D > 0.40)
18,"COc1cc2ncnc(Oc3cccc(NC(=O)Nc4cc(C(C)(C)C)nn4C4CCCCC4)c3)c2cc1OC [Ex 330, 1-(3-tert-butyl-1-cyclohexyl-1H-pyrazol-5-yl)-3-(3-(6,7-dimethoxyquinazolin-4-yloxy)phenyl)urea]",C (0.20 < C ≦ 0.40)
19,"COc1cc2ncnc(Sc3cccc(NC(=O)Nc4cc(C(C)(C)C)nn4-c4ccccn4)c3)c2cc1OC [Ex 345, 1-(3-tert-butyl-1-(pyridin-2-yl)-1H-pyrazol-5-yl)-3-(3-(6,7-dimethoxyquinazolin-4-ylthio)phenyl)urea]",B (0.10 < B ≦ 0.20)
20,"COc1cc2ncnc(Oc3cccc(NC(=O)Nc4cc(C(C)(C)C)nn4-c4ccc(=O)[nH]c4)c3)c2cc1OC [Ex 317, 1-(3-tert-butyl-1-(6-oxo-1,6-dihydropyridin-3-yl)-1H-pyrazol-5-yl)-3-(3-(6,7-dimethoxyquinazolin-4-yloxy)phenyl)urea]",D (D > 0.40)
21,"CCn1nc(C(C)(C)C)cc1NC(=O)Nc1cccc(Sc2ncnc3cc(OC)c(OC)cc23)c1 [Ex 321, 1-(3-tert-butyl-1-ethyl-1H-pyrazol-5-yl)-3-(3-(6,7-dimethoxyquinazolin-4-ylthio)phenyl)urea]",C (0.20 < C ≦ 0.40)
22,"COc1cc2ncnc(Oc3cccc(NC(=O)Nc4cc(C(C)C)nn4-c4ccccc4)c3)c2cc1OC [Ex 324, 1-(3-(6,7-dimethoxyquinazolin-4-yloxy)phenyl)-3-(3-isopropyl-1-phenyl-1H-pyrazol-5-yl)urea]",D (D > 0.40)

# Same assay, conditions: no asterisk: panel of 290 distinct kinases; fraction of kinases inhibited 65% or greater
row,Compound,S35
1,COc1cc(OC2CCOCC2)c2c(Sc3cccc(NC(=O)Nc4cc(C(C)(C)C)on4)c3)ncnc2c1,C (0.20 < C ≦ 0.40)
